Results published in paper PMC10706087, “The Subtype Selectivity in Search of Potent Hypotensive Agents among 5,5-Dimethylhydantoin Derived α1-Adrenoceptors Antagonists” (International Journal of Molecular Sciences, 2023).
Where a name gives a salt, the structure may show the parent alone. Read-outs that look alike come from different tables or passages of the source.

Tests used:
[1] = target: T1, human adrenergic receptor α1A (Homo sapiens, UniProt P35348); assay: Intrinsic activity, aequorin luminescence functional assay at α1A-AR; format: cell-based; settings: for α1A-AR Profile: agonist/antagonist profile; for IC50: cells expressing aequorin and human α1A, against phenylephrine, means of three independent experiments in duplicates; for Selectivity Ratio α1B/α1A: selectivity for α1A-AR (IC50(α1B-AR)/IC50(α1A-AR))
T1 sequence (P35348 1-466): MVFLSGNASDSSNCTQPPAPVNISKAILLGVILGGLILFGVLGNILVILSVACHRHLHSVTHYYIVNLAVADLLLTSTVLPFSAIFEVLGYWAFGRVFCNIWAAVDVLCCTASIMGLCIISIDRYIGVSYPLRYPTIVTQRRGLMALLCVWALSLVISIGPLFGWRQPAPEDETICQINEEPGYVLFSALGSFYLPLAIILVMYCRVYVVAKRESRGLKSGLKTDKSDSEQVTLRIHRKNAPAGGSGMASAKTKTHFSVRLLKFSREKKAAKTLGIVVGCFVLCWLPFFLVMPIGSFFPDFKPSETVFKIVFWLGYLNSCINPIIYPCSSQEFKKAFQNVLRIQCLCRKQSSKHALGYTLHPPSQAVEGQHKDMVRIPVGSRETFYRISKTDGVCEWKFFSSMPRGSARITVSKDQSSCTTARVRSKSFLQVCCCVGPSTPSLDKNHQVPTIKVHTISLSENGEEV

[2] = test system: arterial blood pressure of normotensive Wistar rats; assay: Influence on blood pressure in normotensive anesthetized rats after i.v. administration; format: in vivo, rat; settings: for Diastolic blood pressure / Systolic blood pressure: mean, n = 6
Method in brief: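 Normotensive rats were given thiopental (75 mg/kg) intraperitoneally as anesthesia. A heparinized saline-filled polyethylene tube was placed in the left carotid artery, and blood pressure was recorded with a PowerLab Apparatus. Compounds dissolved in ethyl alcohol 5% − kolliphor 5% − water 90% were injected intravenously at 1 mL/kg after 20 min of stabilization. Pressures were compared by two-way ANOVA with Sidak's post-hoc test.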

[3] = target: T2, human adrenergic receptor α1B (Homo sapiens, UniProt P35368); assay: Intrinsic activity, aequorin luminescence functional assay at α1B-AR; format: cell-based; settings: for α1B-AR Profile: agonist/antagonist profile; for IC50: cells expressing aequorin and human α1B, against phenylephrine, means of three independent experiments in duplicates; for Selectivity Ratio α1A/α1B: selectivity for α1B-AR (IC50(α1A-AR)/IC50(α1B-AR))
T2 sequence (P35368 1-520): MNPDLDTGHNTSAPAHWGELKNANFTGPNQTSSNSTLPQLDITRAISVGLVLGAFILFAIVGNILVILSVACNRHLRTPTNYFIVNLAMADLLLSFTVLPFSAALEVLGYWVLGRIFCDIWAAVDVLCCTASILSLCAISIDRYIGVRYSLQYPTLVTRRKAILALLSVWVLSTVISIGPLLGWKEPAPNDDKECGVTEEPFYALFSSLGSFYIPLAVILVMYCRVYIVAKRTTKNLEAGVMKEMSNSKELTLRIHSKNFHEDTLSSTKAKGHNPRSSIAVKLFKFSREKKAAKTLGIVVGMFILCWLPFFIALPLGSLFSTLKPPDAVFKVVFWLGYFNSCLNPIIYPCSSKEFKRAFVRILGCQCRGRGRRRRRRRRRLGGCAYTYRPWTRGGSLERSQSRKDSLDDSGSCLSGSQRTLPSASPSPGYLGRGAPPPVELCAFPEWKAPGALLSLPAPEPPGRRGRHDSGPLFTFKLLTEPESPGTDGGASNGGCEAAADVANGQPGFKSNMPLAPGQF

[4] = target: α1-adrenoceptors (α1-ARs), rat cerebral cortex; assay: Radioligand binding assay with [3H]-prazosin, affinity for α1-ARs; settings: three independent experiments in duplicates, read-out: α1-adrenoceptor affinity Ki
[5] = target: α1-adrenoceptors (α1-ARs), rat cerebral cortex; settings: cited from earlier work
[6] = test system: α1D- and α1A-AR subtype; parameters: method as in PMID 21753885; settings: cited from earlier work
[7] = 2.0 mg/kg i.v., 0 min (initial, before administration)
[8] = i.v., normotensive anesthetized rats
[9] = published previously, read-out: α1-adrenoceptor affinity Ki
[10] = 1.0 mg/kg i.v., 0 min (initial, before administration)

α1A-AR Profile [1]	IC50 [1] [nM]	Selectivity Ratio α1B/α1A [1]	α1B-AR Profile [3]	IC50 [3] [nM]	SMILES	Diastolic blood pressure [2, 7]	Systolic blood pressure [2, 7]	Diastolic blood pressure ([2]; 2.0 mg/kg i.v., 5 min)	Systolic blood pressure ([2]; 2.0 mg/kg i.v., 5 min)	Diastolic blood pressure ([2]; 2.0 mg/kg i.v., 10 min)	Systolic blood pressure ([2]; 2.0 mg/kg i.v., 10 min)	Diastolic blood pressure ([2]; 2.0 mg/kg i.v., 20 min)	Systolic blood pressure ([2]; 2.0 mg/kg i.v., 20 min)	Diastolic blood pressure ([2]; 2.0 mg/kg i.v., 30 min)	Systolic blood pressure ([2]; 2.0 mg/kg i.v., 30 min)	Diastolic blood pressure ([2]; 2.0 mg/kg i.v., 40 min)	Systolic blood pressure ([2]; 2.0 mg/kg i.v., 40 min)	Diastolic blood pressure ([2]; 2.0 mg/kg i.v., 50 min)	Systolic blood pressure ([2]; 2.0 mg/kg i.v., 50 min)	Diastolic blood pressure ([2]; 2.0 mg/kg i.v., 60 min)	other results
Antagonist	3140	0.12	Antagonist	377	Cc1ccc(N2CCN(CC(O)CN3C(=O)N(Cc4ccc(Cl)cc4Cl)C(=O)C3(C)C)CC2)cc1C.Cl (stereo not shown) [Compound 12, 3-(2,4-dichlorobenzyl)-1-(3-(4-(3,4-dimethylphenyl)piperazin-1-yl)-2-hydroxypropyl)-5,5-dimethylimidazolidine-2,4-dione hydrochloride]	104.2	139.0	98.2	134.7	99.5	134.5	97.8	132.0	96.7	131.0	97.0	129.0	96.8	130.0	97.3	Selectivity Ratio α1A/α1B [3]: 8.31; Ki [4]: 270 nM; melting point: 217 to 219 °C
Antagonist	139	2.39	Antagonist	331	COc1ccccc1N1CCN(CC(O)CN2C(=O)N(Cc3ccc(Cl)cc3Cl)C(=O)C2(C)C)CC1.Cl (stereo not shown) [Compound 13, 3-(2,4-dichlorobenzyl)-1-(2-hydroxy-3-(4-(2-methoxyphenyl)piperazin-1-yl)propyl)-5,5-dimethylimidazolidine-2,4-dione hydrochloride]	98.0	130.7	61.2	102.8	70.8	107.7	77.3	109.3	82.2	112.7	82.8	113.3	82.2	117.2	83.7	selectivity for α1A-AR over α1B-AR ([1]; from IC50 ratio): ~ 2 fold; Systolic blood pressure ([2]; 2.0 mg/kg i.v., 60 min): 118.0; effect on systolic and diastolic blood pressure (in words) [2, 8]: statistically significant reduction; Selectivity Ratio α1A/α1B [3]: 0.42; Ki [4]: 29 nM; melting point: 144 to 146 °C
Antagonist	1220	1.12	Antagonist	1370	COc1cccc(N2CCN(CC(O)CN3C(=O)N(Cc4ccc(Cl)cc4Cl)C(=O)C3(C)C)CC2)c1.Cl (stereo not shown) [Compound 14, 3-(2,4-dichlorobenzyl)-1-(2-hydroxy-3-(4-(3-methoxyphenyl)piperazin-1-yl)propyl)-5,5-dimethylimidazolidine-2,4-dione hydrochloride]	100.8	132.5	100.3	132.3	100.7	132.0	96.0	129.3	96.0	127.7	97.3	125.8	94.3	124.5	92.0	Systolic blood pressure ([2]; 2.0 mg/kg i.v., 60 min): 124.3; Selectivity Ratio α1A/α1B [3]: 0.89; Ki [4]: 289 nM; melting point: 177 to 179 °C
–	–	–	–	–	COc1ccccc1N1CCN(CCCCCN2C(=O)N(Cc3ccccc3)C(=O)C2(C)C)CC1 [PI]	–	–	–	–	–	–	–	–	–	–	–	–	–	–	–	Ki ([5]; lead structure, Figure 2, read-out: α1R Ki): 42.6 nM
–	–	–	–	–	COc1cc2nc(N3CCN(C(=O)c4ccco4)CC3)nc(N)c2cc1OC [Prazosin, prazosin hydrochloride]	–	–	–	–	–	–	–	–	–	–	–	–	–	–	–	Ki [5, 9]: 0.24 nM
–	–	–	–	–	COc1ccccc1N1CCN(CCCNc2cc(=O)n(C)c(=O)n2C)CC1 [Urapidil, urapidil hydrochloride, reference compound]	–	–	–	–	–	–	–	–	–	–	–	–	–	–	–	Ki [5, 9]: 128 nM; Diastolic blood pressure [2, 10]: 93.0; Systolic blood pressure [2, 10]: 127.3; Diastolic blood pressure ([2]; 1.0 mg/kg i.v., 5 min): 77.5; Systolic blood pressure ([2]; 1.0 mg/kg i.v., 5 min): 111.3; Diastolic blood pressure ([2]; 1.0 mg/kg i.v., 10 min): 75.5; Systolic blood pressure ([2]; 1.0 mg/kg i.v., 10 min): 109.5; Diastolic blood pressure ([2]; 1.0 mg/kg i.v., 20 min): 76.0; Systolic blood pressure ([2]; 1.0 mg/kg i.v., 20 min): 110.2; Diastolic blood pressure ([2]; 1.0 mg/kg i.v., 30 min): 78.8; Systolic blood pressure ([2]; 1.0 mg/kg i.v., 30 min): 112.2; Diastolic blood pressure ([2]; 1.0 mg/kg i.v., 40 min): 79.2; Systolic blood pressure ([2]; 1.0 mg/kg i.v., 40 min): 112.7; Diastolic blood pressure ([2]; 1.0 mg/kg i.v., 50 min): 80.8; Systolic blood pressure ([2]; 1.0 mg/kg i.v., 50 min): 114.0; Diastolic blood pressure ([2]; 1.0 mg/kg i.v., 60 min): 81.2; Systolic blood pressure ([2]; 1.0 mg/kg i.v., 60 min): 115.0; lowest hypotensive (effective) dose [2, 8]: 1.0 mg/kg
–	–	–	–	–	COc1ccccc1N1CCN(CC(O)COc2cccc3ccccc23)CC1 (stereo not shown) [naftopidil]	–	–	–	–	–	–	–	–	–	–	–	–	–	–	–	higher affinity for α1D- than for α1A-AR subtype [6]: 3 fold
